Laboratory results as given in US11787799B2 (priority 2015, dated 2023).
Like-named read-outs stand apart in the source and are kept apart here.

Legend:
[1] = tested on: MA-104
[2] = tested on: BHK-21; conditions: read-out: CC50 (Rabies test)
[3] = tested on: BHK; conditions: read-out: CC50 (Powassan test)
[4] = tested on: Enterovirus D68/US/KY/14-18953; assay: Antiviral assay, Enterovirus D68 strain US/KY/14-18953 in RD cells; type: cell-based
[5] = tested on: Enterovirus D68/Fermon; assay: Antiviral assay, Enterovirus D68 strain Fermon in RD cells; type: cell-based
[6] = tested on: MDCK
[7] = tested on: Enterovirus 71; assay: microbe, parasite or virus in culture; type: cell-based; conditions: read-out: EC50 EV71
[8] = tested on: Echovirus 9; assay: microbe, parasite or virus in culture; type: cell-based; conditions: read-out: EC50 ECHO09
[9] = tested on: Poliovirus 3; assay: microbe, parasite or virus in culture; type: cell-based; conditions: read-out: EC50 PV3
[10] = tested on: Coxsackievirus B5; assay: microbe, parasite or virus in culture; type: cell-based; conditions: read-out: EC50 CVB5
[11] = tested on: Coxsackievirus B1; assay: microbe, parasite or virus in culture; type: cell-based; conditions: read-out: EC50 CVB1
[12] = tested on: Japanese Encephalitis; type: cell-based
[13] = tested on: Rift Valley virus; assay: organism not typed; type: cell-based; conditions: read-out: EC50 Rift Valley virus
[14] = tested on: RD cells
[15] = tested on: Venezuelan Encephalitis; type: cell-based, Venezuelan encephalitis virus
[16] = tested on: Echovirus 11; assay: microbe, parasite or virus in culture; type: cell-based; conditions: read-out: EC50 ECHO11
[17] = tested on: Rabies; type: cell-based, rabies virus
[18] = tested on: RSV (resp syncitial virus); assay: microbe, parasite or virus in culture; type: cell-based; conditions: read-out: EC50 RSV
[19] = tested on: Measles; assay: microbe, parasite or virus in culture; type: cell-based; conditions: read-out: EC50 Measles
[20] = tested on: Echovirus 30; assay: microbe, parasite or virus in culture; type: cell-based; conditions: read-out: EC50 ECHO30
[21] = tested on: HeLa-RW cells
[22] = tested on: Vero; conditions: read-out: CC50 (Yellow Fever Virus test)
[23] = tested on: Punta Toro virus; assay: microbe, parasite or virus in culture; type: cell-based; conditions: read-out: EC50 Punta Toro virus
[24] = tested on: Coxsackievirus B3-H3; assay: microbe, parasite or virus in culture; type: cell-based; conditions: read-out: EC50 CVB3-H3
[25] = tested on: Vero 76
[26] = tested on: Poliovirus 1; assay: microbe, parasite or virus in culture; type: cell-based; conditions: read-out: EC50 PV1
[27] = tested on: SARS Coronavirus; type: cell-based
[28] = tested on: Yellow Fever Virus; assay: microbe, parasite or virus in culture; type: cell-based; conditions: read-out: EC50 Yellow Fever Virus
[29] = tested on: Powassan; type: cell-based, Powassan virus
[30] = tested on: Influenza A H1N1; assay: microbe, parasite or virus in culture; type: cell-based; conditions: read-out: EC50 Influenza A H1N1
[31] = tested on: Chikungunya; type: cell-based, chikungunya virus
[32] = tested on: Coxsackievirus A9; assay: microbe, parasite or virus in culture; type: cell-based; conditions: read-out: EC50 COX A9
[33] = tested on: Echovirus 7; assay: microbe, parasite or virus in culture; type: cell-based; conditions: read-out: EC50 ECHO07
[34] = tested on: Enterovirus D68/US/Mo/14-18949; assay: Antiviral assay, Enterovirus D68 strain US/Mo/14-18949 in RD cells; type: cell-based
[35] = tested on: Coxsackievirus B4; assay: microbe, parasite or virus in culture; type: cell-based; conditions: read-out: EC50 CVB4
[36] = tested on: Coxsackievirus B2; assay: microbe, parasite or virus in culture; type: cell-based; conditions: read-out: EC50 CVB2
[37] = tested on: Echovirus 6; assay: microbe, parasite or virus in culture; type: cell-based; conditions: read-out: EC50 ECHO06
[38] = tested on: Echovirus 25; assay: microbe, parasite or virus in culture; type: cell-based; conditions: read-out: EC50 ECHO25
[39] = tested on: LLC cells
[40] = read-out: CC50 (Rift Valley virus test), with Rift Valley virus MP-12 test
[41] = read-out: CC50 (SARS Coronavirus test), with SARS Coronavirus Urbani test

| Structure (SMILES) | CC50 [1] | CC50 [2] | CC50 [3] | EC50 [4] | EC50 [5] | CC50 [6] | EC50 [7] | EC50 [8] | EC50 [9] | EC50 [10] | EC50 [11] | EC50 [12] | EC50 [13] | CC50 [14] | EC50 [15] | EC50 [17] | EC50 [18] | EC50 [19] | EC50 [20] | CC50 [21] | further results |
| --- | --- | --- | --- | --- | --- | --- | --- | --- | --- | --- | --- | --- | --- | --- | --- | --- | --- | --- | --- | --- | --- |
| CC(C)n1ncc2c(C(=O)Nc3ccccc3F)cc(-c3cccs3)nc21 [JX-001] | 4700 nM | > 100000 nM | > 33000 nM | 500 ± 170 nM | 350 ± 50 nM | > 100000 nM | 1800 ± 500 nM | 2100 ± 1200 nM | 7000 nM | 2300 nM | 2400 ± 200 nM | > 14 nM | > 50000 nM | 200000 nM | > 980 nM | > 100000 nM | 3400 nM | > 4000 nM | 1200 nM | 12500 nM | EC50 [16]: 1500 ± 400 nM; CC50 [22]: 4800 nM; EC50 [23]: > 39000 nM; EC50 [24]: 1400 ± 600 nM; CC50 [25, 40]: 50000 nM; CC50 [25, 41]: 3300 nM; EC50 [26]: 7000 nM; EC50 [27]: 3200 nM; EC50 [28]: > 4800 nM; EC50 [29]: > 33000 nM; EC50 [30]: > 100000 nM; EC50 [31]: 310 nM; EC50 [32]: 2600 ± 900 nM; EC50 [33]: 2400 nM; EC50 [34]: 330 ± 50 nM; EC50 [35]: 2300 nM; EC50 [36]: 2800 ± 400 nM; EC50 [37]: 2300 ± 900 nM; EC50 [38]: 3000 nM |
| CC(C)n1ncc2c(C(=O)Nc3ccc(F)cc3F)cc(-c3cccs3)nc21 [JX-008] | > 100000 nM | > 100000 nM | 38000 nM | 400 ± 170 nM | 330 ± 60 nM | > 100000 nM | 1600 ± 400 nM | 1500 ± 1000 nM | > 25000 nM | 2300 nM | 2300 nM | > 440 nM | > 77000 nM | 100000 nM | > 480 nM | > 100000 nM | > 100000 nM | 34000 nM | 800 nM | > 200000 nM | EC50 [16]: 1400 ± 400 nM; CC50 [22]: 50000 nM; EC50 [23]: 23000 nM; EC50 [24]: 1400 ± 500 nM; CC50 [25, 40]: 77000 nM; CC50 [25, 41]: > 100000 nM; EC50 [26]: > 25000 nM; EC50 [27]: 68000 nM; EC50 [28]: 45000 nM; CC50 [39]: > 200000 nM; EC50 [29]: > 38000 nM; EC50 [30]: 70000 nM; EC50 [31]: > 660 nM; EC50 [32]: 2300 ± 800 nM; EC50 [33]: 2400 nM; EC50 [34]: 280 ± 80 nM; EC50 [35]: 2300 nM; EC50 [36]: 2800 ± 400 nM; EC50 [37]: 1900 ± 700 nM; EC50 [38]: 1500 nM |
| CC(C)n1ncc2c(C(=O)Nc3ccc(F)cc3)cc(-c3cccs3)nc21 [JX-017] | > 100000 nM | > 100000 nM | 37000 nM | 500 ± 170 nM | 330 ± 60 nM | > 100000 nM | 900 ± 300 nM | 600 nM | > 25000 nM | 1000 ± 100 nM | 900 ± 300 nM | > 430 nM | > 52000 nM | > 200000 nM | 320 nM | > 100000 nM | 69000 nM | 8900 nM | 500 nM | > 200000 nM | CC50 [22]: 9900 nM; EC50 [23]: 12000 nM; EC50 [24]: 700 ± 200 nM; CC50 [25, 40]: 52000 nM; CC50 [25, 41]: 10000 nM; EC50 [26]: > 25000 nM; EC50 [27]: > 10000 nM; EC50 [28]: > 9900 nM; CC50 [39]: > 200000 nM; EC50 [29]: 32000 nM; EC50 [30]: > 100000 nM; EC50 [31]: 290 nM; EC50 [32]: 900 ± 500 nM; EC50 [33]: 1300 ± 200 nM; EC50 [34]: 350 ± 60 nM; EC50 [35]: 800 nM; EC50 [36]: 1000 ± 300 nM; EC50 [37]: 1000 ± 400 nM; EC50 [38]: 1200 nM |
